In ChEMBL document CHEMBL1201862, “PubChem BioAssay data set” (2004):
“And” between values parts separate entries of the source, which are not always exact repeats. Identical values can stand only once. The source made the active and inactive calls.

Assays:
[1] = inhibitors of intracellular T. cruzi replication, confirmation, NIH3T3 host cells, beta-gal luminescence (AID 2044); type: functional, cell-based;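 further: intracellular parasites grown in NIH/3T3 mouse fibroblasts as host cells; luminescent beta-galactosidase reporter signal from transgenic T. cruzi replicating inside host cells; inhibitors lower the luminescence signal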
[2] = cytotoxicity toward NIH3T3 fibroblasts, dose response, counter-screen, cell-based, ATP luminescence, mouse fibroblasts (AID 2010); type: functional;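 further: cells exposed to compound for about 90 hours before reading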
Cytochrome P450 2D6 = Cytochrome P450 2D6 (Homo sapiens, UniProt P10635);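 further: CYP2D6 member of a cytochrome P450 panel assay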
Streptococcus = test: Group A Streptococcus viability loss, dose response, counter-screen for streptokinase expression inhibitor project, luminescence, BacTiterGlo (AID 1915); type: functional, organism-based;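 further: potency for reduction of bacterial viability or growth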
[3] = tested on: Streptococcus sp. 'group A'; test: growth inhibition of control SK(-) GAS strain, dose response, counter-screen for streptokinase expression inhibitor project, luminescence, kanamycin, BacTiterGlo, confirmation (AID 1900); type: functional, organism-based
Cytochrome P450 2C9 = Cytochrome P450 2C9 (Homo sapiens, UniProt P11712)
Cytochrome P450 2C19 = Cytochrome P450 2C19 (Homo sapiens, UniProt P33261); test: Cytochrome panel assay with activity outcomes. Panel member name: p450-cyp2c19 Compounds with AC50 equal or less than 10 uM are considered active; type: functional; details: read-out: AC50
Cytochrome P450 1A2 = target: T1, Cytochrome P450 1A2 (Homo sapiens, UniProt P05177);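 further: PubChem cytochrome P450 panel assay, CYP1A2 panel member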
T1 sequence (P05177 whole entry): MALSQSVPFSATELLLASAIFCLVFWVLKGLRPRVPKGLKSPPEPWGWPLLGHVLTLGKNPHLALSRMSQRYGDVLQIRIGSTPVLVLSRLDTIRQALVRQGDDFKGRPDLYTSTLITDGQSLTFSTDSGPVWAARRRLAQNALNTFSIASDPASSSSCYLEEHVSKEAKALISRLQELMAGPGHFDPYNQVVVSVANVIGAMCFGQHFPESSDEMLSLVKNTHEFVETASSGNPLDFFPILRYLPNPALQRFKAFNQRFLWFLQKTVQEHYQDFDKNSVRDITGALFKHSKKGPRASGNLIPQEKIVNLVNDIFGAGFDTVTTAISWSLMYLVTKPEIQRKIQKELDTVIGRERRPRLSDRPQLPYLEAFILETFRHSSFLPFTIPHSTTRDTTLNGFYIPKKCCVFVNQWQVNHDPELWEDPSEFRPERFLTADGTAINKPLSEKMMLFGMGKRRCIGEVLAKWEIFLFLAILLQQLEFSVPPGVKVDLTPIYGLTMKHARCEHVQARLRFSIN

Cytochrome P450 2C19, sequence (P33261 whole entry): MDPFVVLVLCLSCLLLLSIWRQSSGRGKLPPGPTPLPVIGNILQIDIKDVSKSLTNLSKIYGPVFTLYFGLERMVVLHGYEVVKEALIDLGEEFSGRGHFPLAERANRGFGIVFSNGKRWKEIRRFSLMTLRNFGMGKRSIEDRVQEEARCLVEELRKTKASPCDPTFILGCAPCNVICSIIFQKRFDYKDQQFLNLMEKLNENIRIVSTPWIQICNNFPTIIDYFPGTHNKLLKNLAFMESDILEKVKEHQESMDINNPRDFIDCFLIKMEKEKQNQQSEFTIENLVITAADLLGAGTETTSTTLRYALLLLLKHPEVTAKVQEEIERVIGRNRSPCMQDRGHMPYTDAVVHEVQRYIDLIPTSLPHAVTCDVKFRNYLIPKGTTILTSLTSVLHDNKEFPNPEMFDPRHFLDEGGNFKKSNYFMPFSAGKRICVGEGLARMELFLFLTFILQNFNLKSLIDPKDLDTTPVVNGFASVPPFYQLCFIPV
Cytochrome P450 2D6, sequence (P10635 whole entry): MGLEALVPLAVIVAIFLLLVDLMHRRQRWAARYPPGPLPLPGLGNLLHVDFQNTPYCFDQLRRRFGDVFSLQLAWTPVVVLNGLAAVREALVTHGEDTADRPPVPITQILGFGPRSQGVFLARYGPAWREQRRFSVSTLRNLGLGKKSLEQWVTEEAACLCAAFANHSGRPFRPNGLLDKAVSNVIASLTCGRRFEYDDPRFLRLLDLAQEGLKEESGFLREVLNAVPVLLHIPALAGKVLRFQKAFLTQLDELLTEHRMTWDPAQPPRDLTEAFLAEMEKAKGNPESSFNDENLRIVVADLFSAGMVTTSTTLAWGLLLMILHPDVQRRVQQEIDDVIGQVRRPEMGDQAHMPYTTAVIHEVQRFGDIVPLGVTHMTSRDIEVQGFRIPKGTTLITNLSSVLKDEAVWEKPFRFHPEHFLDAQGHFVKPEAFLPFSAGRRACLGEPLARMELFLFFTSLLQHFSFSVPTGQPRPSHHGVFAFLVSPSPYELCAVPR
Cytochrome P450 2C9, sequence (P11712 whole entry): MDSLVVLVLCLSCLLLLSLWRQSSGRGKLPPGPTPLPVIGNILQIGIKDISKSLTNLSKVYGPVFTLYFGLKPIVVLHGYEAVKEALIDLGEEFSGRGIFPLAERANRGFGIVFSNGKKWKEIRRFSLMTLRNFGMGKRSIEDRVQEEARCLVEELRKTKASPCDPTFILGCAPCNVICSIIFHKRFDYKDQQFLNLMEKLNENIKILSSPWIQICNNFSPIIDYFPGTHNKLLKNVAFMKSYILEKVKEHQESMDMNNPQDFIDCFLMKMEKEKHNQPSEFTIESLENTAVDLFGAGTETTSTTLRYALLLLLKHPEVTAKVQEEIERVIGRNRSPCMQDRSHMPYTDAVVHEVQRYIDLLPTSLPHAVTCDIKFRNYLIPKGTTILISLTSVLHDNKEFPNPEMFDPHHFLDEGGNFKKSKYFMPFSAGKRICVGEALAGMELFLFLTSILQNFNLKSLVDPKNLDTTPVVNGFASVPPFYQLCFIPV

Row | SMILES | AC50 (Cytochrome P450 2D6) | AC50 (Cytochrome P450 1A2) | EC50 [1] | EC50 [2] | also measured
1 | CC(CC(=O)N1CCN(c2ccc(C(F)(F)F)cn2)CC1)n1ccnc1 (stereo not given) |  |  | 1.51 µM (active) | > 60 µM (not active) | 
2 | COc1cc(CCN2C(=O)c3cccc4cccc(c34)C2=O)c(S(=O)(=O)N2CCC(C)CC2)cc1OC |  |  | 1.51 µM (active) | > 60 µM (not active) | 
3 | CC(=O)NCCC(=O)Nc1nc(-c2ccc3ccccc3c2)cs1 |  |  | 2 µM (active) | > 60 µM (not active) | 
4 | Fc1ccc2nc(Nc3nc4cc5c(cc4s3)OCO5)sc2c1 |  |  |  |  | EC50 (Streptococcus): 3.02 µM (active); EC50 [3]: 7.04 µM (active)
5 | O=c1cnc2cnc(Nc3ccccc3)nc2n1Cc1cccs1 |  |  |  |  | AC50 (Cytochrome P450 2C9): 3.16 µM (inconclusive)
6 | CCOC(=O)N1CCN(S(=O)(=O)c2ccc3ncc(C(=O)O)c(O)c3c2)CC1 |  |  |  |  | AC50 (Cytochrome P450 2C9): 15.8 µM (inconclusive)
7 | COc1ccc(OC)c(CNc2ccc3c(c2)CCC3)c1 |  |  | 2.08 µM (active) | > 60 µM (not active) | 
8 | c1ccc2c(c1)ncn2-c1ccc(-c2ccnc(-c3ccncc3)n2)cc1 | 1.12 µM (inconclusive) |  |  |  | 
9 | O=C(NCCOC12CC3CC(CC(C3)C1)C2)c1cccc(Br)c1 |  | 17.8 µM (inconclusive) |  |  | 
10 | Cc1ccc(Cl)cc1N=C(S)N(Cc1ccccc1)Cc1cccnc1 |  |  | 0.785 µM (active) | > 60 µM (not active) | 
11 | CCOC(=O)CNc1nc(C(C)(C)C)nc2c1nnn2Cc1ccccc1Cl |  |  | 3.11 µM (active) | > 60 µM (not active) | 
12 | O=S(=O)(c1ccc(F)cc1)n1ccc(-c2cnc(-c3ccccc3)s2)n1 | 17.8 µM (inconclusive) |  |  |  | 
13 | CN(C)CCCNc1c2c(nc3ccc(Cl)cc13)CCCC2 |  | 3.16 µM (inconclusive) |  |  | 
14 | CCCCCCCNC(=O)c1cc(-c2ccncc2)nc2ccccc12 |  |  | 2.98 µM (active) | > 60 µM (not active) | 
15 | CCn1c(=O)c2c(nc3n2CCS3)n(C)c1=O |  |  |  |  | AC50 (Cytochrome P450 2C19): 10 µM (inconclusive); AC50 (Cytochrome P450 2C9): 0.00891 µM (inconclusive)
16 | Cc1cn2c(-c3ccncc3)nnc2s1 |  | 10 µM (inconclusive) |  |  | 
17 | COc1cccc(NC(=O)CSc2nnc(CN3CCOCC3)n2C)c1 |  |  |  |  | AC50 (Cytochrome P450 2C19): 28.2 µM (inconclusive)
18 | COc1ccc2c(c1)c(C(=O)N/N=C/c1cccc(Br)c1)c(C)n2C |  |  | 0.324 µM (active) | > 60 µM (not active) | 
19 | COc1ccc2c(c1)s/c(=N/C(=O)CS(=O)(=O)c1ccc(F)cc1)n2C |  |  | 0.328 µM (active) | > 30 µM (not active) | 
20 | C[N+](C)([O-])CCC=C1c2ccccc2CCc2ccccc21 [AMITRIPTYLINOXIDE] |  | 0.794 µM (inconclusive) |  |  | 
21 | O=C(O)c1ccccc1Nc1ccccc1 [FENAMIC ACID] |  | 15.8 µM (inconclusive) |  |  | AC50 (Cytochrome P450 2C9): 15.8 µM (inconclusive)
22 | COc1ccc(Cc2nccc3cc(OC)c(OC)cc23)cc1OC [PAPAVERINE] | 10 µM (inconclusive) and 25.1 µM (inconclusive) | 10 µM (inconclusive) and 25.1 µM (inconclusive) |  |  | AC50 (Cytochrome P450 2C19): 10 µM (inconclusive) and 3.98 µM (inconclusive)

The next lines start with results.

Row | AC50 (Cytochrome P450 2D6) | AC50 (Cytochrome P450 1A2) | SMILES | EC50 [1] | EC50 [2] | also measured
23 | 25.1 µM (inconclusive) |  | CCNc1ncc2nc(-c3ccc(Cl)cc3)c(=O)n(C)c2n1 |  |  | 
24 | 25.1 µM (inconclusive) |  | COC(=O)[C@@]1(Cc2ccc(F)cc2)[C@H]2c3cc(C(=O)N(C)C)n(CCO)c3C[C@H]2CN1C(=O)c1ccccc1 |  |  | AC50 (Cytochrome P450 2C19): 25.1 µM (inconclusive)
25 |  | 10 µM (inconclusive) | CCC(C)(C(=O)NC1CCCC1)N(C(=O)c1ccccn1)c1ccccc1 (stereo not given) |  |  | AC50 (Cytochrome P450 2C19): 8.91 µM (inconclusive)
26 | 39.8 µM (inconclusive) | 15.8 µM (inconclusive) | COC(=O)[C@@]1(Cc2ccc(F)cc2)[C@H]2c3cc(C(=O)N4CCCC4)n(CCN4CNCC4=O)c3C[C@H]2CN1C(=O)c1ccccc1 |  |  | AC50 (Cytochrome P450 2C19): 39.8 µM (inconclusive)
27 | 39.8 µM (inconclusive) |  | CCNc1ncc2nc(C)c(=O)n(C[C@H]3CCCO3)c2n1 |  |  | 
28 | 8.91 µM (inconclusive) |  | Cc1cccc(NC(=O)CSc2nc3ccccc3c3nc(CCc4c(C)n[nH]c4C)nn23)c1 |  |  | 
29 |  | 31.6 µM (inconclusive) | Cc1nnc(SCC(=O)Nc2nccs2)nc1O |  |  | AC50 (Cytochrome P450 2C19): 10 µM (inconclusive); AC50 (Cytochrome P450 2C9): 10 µM (inconclusive)
30 | 0.631 µM (inconclusive) |  | Cc1ccc(C)c(C(=O)CN2C(=O)c3ccccc3S2(=O)=O)c1 |  |  | 
